# In PubChem BioAssay AID1919006 (Molecular Pharmacology Branch, DTP, NCI, 2023):
# “And” between values parts separate entries of the source, which are not always exact repeats. Equal values may be shown once.
# Tested on: 885512-296-R-J2-PDC complex spheroid growth, % test/control
# Assay: Anticancer human tumor 885512-296-R-J2-PDC patient-derived breast carcinoma cell line growth inhibition [AhR]
# Settings: for viability, T/C: stronger effect = lower value
# Summary of the method: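 Agents were dosed in half-log steps down from roughly clinical Cmax, or from 10 microM where Cmax was unknown, alone and with AhR antagonists. Read-out: percent test/control growth of tumor spheroids containing HUVEC and MSC stromal cells.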
# [1] = curve of first compound, second compound 0.1 µM
# [2] = curve of first compound, second compound 0.316 µM
# [3] = curve of first compound, second compound 1 µM
# [4] = curve of first compound, second compound 3.16 µM
# [5] = curve of first compound, second compound 10 µM
# [6] = second compound 0.1 µM, first compound 0.0316 µM
# [7] = second compound 0.1 µM, first compound 0.1 µM
# [8] = second compound 0.1 µM, first compound 0.316 µM
# [9] = second compound 0.1 µM, first compound 1 µM
# [10] = second compound 0.1 µM, first compound 3.16 µM
# [11] = second compound 0.1 µM, first compound 10 µM
# [12] = second compound 0.316 µM, first compound 0.0316 µM
# [13] = second compound 0.316 µM, first compound 0.1 µM
# [14] = second compound 0.316 µM, first compound 0.316 µM
# [15] = second compound 0.316 µM, first compound 1 µM
# [16] = second compound 0.316 µM, first compound 3.16 µM
# [17] = second compound 0.316 µM, first compound 10 µM
# [18] = second compound 1 µM, first compound 0.0316 µM
# [19] = second compound 1 µM, first compound 0.1 µM
# [20] = second compound 1 µM, first compound 0.316 µM
# [21] = second compound 1 µM, first compound 1 µM
# [22] = second compound 1 µM, first compound 3.16 µM
# [23] = second compound 1 µM, first compound 10 µM
# [24] = second compound 3.16 µM, first compound 0.0316 µM
# [25] = second compound 3.16 µM, first compound 0.1 µM
# [26] = second compound 3.16 µM, first compound 0.316 µM
# [27] = second compound 3.16 µM, first compound 1 µM
# [28] = second compound 3.16 µM, first compound 3.16 µM
# [29] = second compound 3.16 µM, first compound 10 µM
# [30] = second compound 10 µM, first compound 0.0316 µM
# [31] = second compound 10 µM, first compound 0.1 µM
# [32] = second compound 10 µM, first compound 0.316 µM
# [33] = second compound 10 µM, first compound 1 µM
# [34] = second compound 10 µM, first compound 3.16 µM
# [35] = second compound 10 µM, first compound 10 µM
# 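Note: spheroids exposed to compounds for seven days.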
smiles,measurement,setting,value
Nc1ccn(C2OC(CO)C(O)C2(F)F)c(=O)n1 (stereo not given) + CC(CO)NC(=O)c1cc(-c2ccc(Cl)cc2)nn(-c2cnn(C)c2)c1=O,IC50,[1],< 31.6 nM
same,IC50,[2],< 31.6 nM
same,IC50,[3],< 31.6 nM
same,IC50,[4],< 31.6 nM
same,IC50,[5],< 31.6 nM
same,"viability, T/C",[6],2.76%
same,"viability, T/C",[7],3%
same,"viability, T/C",[8],3.87%
same,"viability, T/C",[9],4.14%
same,"viability, T/C",[10],4.54%
same,"viability, T/C",[11],3.83%
same,"viability, T/C",[12],3.69%
same,"viability, T/C",[13],3.44%
same,"viability, T/C",[14],2.94%
same,"viability, T/C",[15],4.15%
same,"viability, T/C",[16],4.75%
same,"viability, T/C",[17],4.18%
same,"viability, T/C",[18],2.96%
same,"viability, T/C",[19],3.26%
same,"viability, T/C",[20],3.72%
same,"viability, T/C",[21],3.82%
same,"viability, T/C",[22],5.38%
same,"viability, T/C",[23],4.22%
same,"viability, T/C",[24],3.18%
same,"viability, T/C",[25],2.97%
same,"viability, T/C",[26],3.84%
same,"viability, T/C",[27],3.9%
same,"viability, T/C",[28],4.31%
same,"viability, T/C",[29],4.48%
same,"viability, T/C",[30],6.37%
same,"viability, T/C",[31],5.16%
same,"viability, T/C",[32],4.54%
same,"viability, T/C",[33],3.78%
same,"viability, T/C",[34],4.11%
same,"viability, T/C",[35],4.01%
Nc1ccccc1NC(=O)c1ccc(CNC(=O)OCc2cccnc2)cc1,"viability, T/C",compound 0.0316 µM,79.7% and 97% and 82.8%
same,"viability, T/C",compound 0.1 µM,86.1% and 81.5% and 74.1%
same,"viability, T/C",compound 0.316 µM,67.5% and 63.9% and 58.3%
same,"viability, T/C",compound 1 µM,48.1% (2×) and 46.7%
same,"viability, T/C",compound 3.16 µM,25.6% and 24.4% and 32.2%
same,"viability, T/C",compound 10 µM,10.4% and 10.3% (2×)
same,IC50,curve of compound,920 nM and 758 nM and 747 nM
O=C(C=Cn1cnc(-c2cc(C(F)(F)F)cc(C(F)(F)F)c2)n1)NNc1cnccn1 + CC(CO)NC(=O)c1cc(-c2ccc(Cl)cc2)nn(-c2cnn(C)c2)c1=O,IC50,[1],62.9 nM
same,IC50,[2],67.2 nM
same,IC50,[3],71.8 nM
same,IC50,[4],65.6 nM
same,IC50,[5],66.3 nM
same,"viability, T/C","second compound 0.1 µM, first compound 0.00949 µM",91.7%
same,"viability, T/C","second compound 0.1 µM, first compound 0.03 µM",99.7%
same,"viability, T/C","second compound 0.1 µM, first compound 0.0949 µM",24.6%
same,"viability, T/C","second compound 0.1 µM, first compound 0.3 µM",3.85%
same,"viability, T/C","second compound 0.1 µM, first compound 0.949 µM",2.45%
same,"viability, T/C","second compound 0.1 µM, first compound 3 µM",0.96%
same,"viability, T/C","second compound 0.316 µM, first compound 0.00949 µM",101%
same,"viability, T/C","second compound 0.316 µM, first compound 0.03 µM",98.8%
same,"viability, T/C","second compound 0.316 µM, first compound 0.0949 µM",29.1%
same,"viability, T/C","second compound 0.316 µM, first compound 0.3 µM",3.67%
same,"viability, T/C","second compound 0.316 µM, first compound 0.949 µM",1.87%
same,"viability, T/C","second compound 0.316 µM, first compound 3 µM",0.84%
same,"viability, T/C","second compound 1 µM, first compound 0.00949 µM",94.2%
same,"viability, T/C","second compound 1 µM, first compound 0.03 µM",109%
same,"viability, T/C","second compound 1 µM, first compound 0.0949 µM",33.4%
same,"viability, T/C","second compound 1 µM, first compound 0.3 µM",5.46%
same,"viability, T/C","second compound 1 µM, first compound 0.949 µM",1.59%
same,"viability, T/C","second compound 1 µM, first compound 3 µM",0.91%
same,"viability, T/C","second compound 3.16 µM, first compound 0.00949 µM",92.2%
same,"viability, T/C","second compound 3.16 µM, first compound 0.03 µM",111%
same,"viability, T/C","second compound 3.16 µM, first compound 0.0949 µM",25.7%
same,"viability, T/C","second compound 3.16 µM, first compound 0.3 µM",6.14%
same,"viability, T/C","second compound 3.16 µM, first compound 0.949 µM",1.92%
same,"viability, T/C","second compound 3.16 µM, first compound 3 µM",0.85%
same,"viability, T/C","second compound 10 µM, first compound 0.00949 µM",114%
same,"viability, T/C","second compound 10 µM, first compound 0.03 µM",107%
same,"viability, T/C","second compound 10 µM, first compound 0.0949 µM",24.1%
same,"viability, T/C","second compound 10 µM, first compound 0.3 µM",4.61%
same,"viability, T/C","second compound 10 µM, first compound 0.949 µM",2%
same,"viability, T/C","second compound 10 µM, first compound 3 µM",0.87%
COc1ccc([C@@H](O)c2cc(-c3ncnc4cc(N5CCOCC5)ccc34)c(F)cc2Cl)nn1,"viability, T/C",compound 0.0316 µM,94.6% and 87.4% and 102%
same,"viability, T/C",compound 0.1 µM,106% and 92.4% and 99.4%
same,"viability, T/C",compound 0.316 µM,89.7% and 96.4% and 93.8%
same,"viability, T/C",compound 1 µM,92.1% and 84% and 75.6%
same,"viability, T/C",compound 3.16 µM,72.1% and 75.7% and 68.1%
same,"viability, T/C",compound 10 µM,46% and 46.8% and 45.7%
same,IC50,curve of compound,8490 nM and 8770 nM and 8080 nM
O=C(C=Cn1cnc(-c2cc(C(F)(F)F)cc(C(F)(F)F)c2)n1)NNc1cnccn1,"viability, T/C",compound 0.00949 µM,95.6% and 113% and 96.3%
same,"viability, T/C",compound 0.03 µM,100% and 113% and 117%
same,"viability, T/C",compound 0.0949 µM,38% and 25% and 25.8%
same,"viability, T/C",compound 0.3 µM,5.56% and 4.15% and 4.46%
same,"viability, T/C",compound 0.949 µM,2.2% and 1.47% and 2.93%
same,"viability, T/C",compound 3 µM,1.21% and 0.91% and 1.13%
same,IC50,curve of compound,75.3 nM and 68.3 nM and 67.1 nM
O=C(C=Cc1cccc(S(=O)(=O)Nc2ccccc2)c1)NO,"viability, T/C",compound 0.0316 µM,90.3% and 90% and 85.2%
same,"viability, T/C",compound 0.1 µM,86.3% and 84.5% and 83.5%
same,"viability, T/C",compound 0.316 µM,59.8% and 62.8% and 69.6%
same,"viability, T/C",compound 1 µM,45.6% and 39% and 44.7%
same,"viability, T/C",compound 3.16 µM,26.5% and 27.6% and 33.8%
same,"viability, T/C",compound 10 µM,10.4% and 6.72% and 10.9%
same,IC50,curve of compound,725 nM and 670 nM and 991 nM
CC(C)c1c(-c2ccccc2)nc2c(C#N)c[nH]n2c1=O,"viability, T/C",compound 0.0316 µM,93.1% and 105% and 113%
same,"viability, T/C",compound 0.1 µM,103% and 96.8% and 99.5%
same,"viability, T/C",compound 0.316 µM,107% and 97.7% and 89%
same,"viability, T/C",compound 1 µM,95.2% and 98.4% and 113%
same,"viability, T/C",compound 3.16 µM,96.8% and 100% (2×)
same,"viability, T/C",compound 10 µM,90.8% and 92% and 95.9%
same,IC50,curve of compound,> 10000 nM
O=C(C=Cc1cccc(S(=O)(=O)Nc2ccccc2)c1)NO + Cc1ccccc1N=Nc1ccc(NC(=O)c2ccnn2C)c(C)c1,IC50,[1],871 nM
same,IC50,[2],1160 nM
same,IC50,[3],1090 nM
same,IC50,[4],773 nM
same,IC50,[5],33.8 nM
same,"viability, T/C",[6],84.5%
same,"viability, T/C",[7],82.9%
same,"viability, T/C",[8],67.6%
same,"viability, T/C",[9],45%
same,"viability, T/C",[10],27.8%
same,"viability, T/C",[11],7.04%
same,"viability, T/C",[12],86.4%
same,"viability, T/C",[13],85.8%
same,"viability, T/C",[14],80.8%
same,"viability, T/C",[15],47.8%
same,"viability, T/C",[16],30.6%
same,"viability, T/C",[17],7.44%
same,"viability, T/C",[18],88.2%
same,"viability, T/C",[19],85.5%
same,"viability, T/C",[20],68.9%
same,"viability, T/C",[21],51.4%
same,"viability, T/C",[22],29.8%
same,"viability, T/C",[23],7.53%
same,"viability, T/C",[24],73.8%
same,"viability, T/C",[25],73%
same,"viability, T/C",[26],67.5%
same,"viability, T/C",[27],40.6%
same,"viability, T/C",[28],28.2%
same,"viability, T/C",[29],6.85%
same,"viability, T/C",[30],51%
same,"viability, T/C",[31],46.8%
same,"viability, T/C",[32],41.9%
same,"viability, T/C",[33],32.5%
same,"viability, T/C",[34],27.6%
same,"viability, T/C",[35],7.31%
NS(=O)(=O)OCC1CC(n2ccc3c(NC4CCc5ccccc54)ncnc32)CC1O (stereo not given) + Cc1ccccc1N=Nc1ccc(NC(=O)c2ccnn2C)c(C)c1,IC50,[1],94.9 nM
same,IC50,[2],90.1 nM
same,IC50,[3],88.2 nM
same,IC50,[4],80.5 nM
same,IC50,[5],57.6 nM
same,"viability, T/C",[6],93.2%
same,"viability, T/C",[7],47.9%
same,"viability, T/C",[8],16.2%
same,"viability, T/C",[9],6.95%
same,"viability, T/C",[10],4.75%
same,"viability, T/C",[11],5.39%
same,"viability, T/C",[12],94.9%
same,"viability, T/C",[13],45.5%
same,"viability, T/C",[14],14.1%
same,"viability, T/C",[15],6.56%
same,"viability, T/C",[16],4.96%
same,"viability, T/C",[17],5.27%
same,"viability, T/C",[18],96.5%
same,"viability, T/C",[19],44.2%
same,"viability, T/C",[20],16.7%
same,"viability, T/C",[21],7.31%
same,"viability, T/C",[22],5.64%
same,"viability, T/C",[23],6.16%
same,"viability, T/C",[24],84.5%
same,"viability, T/C",[25],42%
same,"viability, T/C",[26],14.1%
same,"viability, T/C",[27],6.49%
same,"viability, T/C",[28],4.75%
same,"viability, T/C",[29],5.47%
same,"viability, T/C",[30],67%
same,"viability, T/C",[31],34.3%
same,"viability, T/C",[32],13.7%
same,"viability, T/C",[33],4.96%
same,"viability, T/C",[34],3.85%
same,"viability, T/C",[35],4.91%
